What was measured:
[1] = system: RhlR; experiment: rhlI-gfp reporter antagonist assay, PAO-JP2 (prhlI-LVAgfp); type: cell-based, P. aeruginosa; conditions: 50 μM compound, competing against 1 μM AI1 and 10 μM AI2
Procedure: Each compound in the library was tested for antagonist activity using the same reporter strain, PAO-JP2 (plasI-LVAgfp) (de Kievit et al., Appl. Environ. Microbiol. 67:865-1873 (2001), which is hereby incorporated by reference in its entirety) to find compounds that could compete against AI1 and reduce GFP expression. The methods were the same as described in Example 2 (GFP Reporter Assay), except that 1 μM AI1 was added to each well in combination with the library compound. The fluorescence/OD600 of each compound competing against AI1 was reported relative to the fluorescence/OD600 of the positive control of AI1 alone, which was set to 1. When strain PAO-JP2 (prhlI-LVAgfp) was used, the positive control was 1 μM AI1 and 10 μM AI2.
3- oxo-C12-D10 was synthesized in solution phase, where the natural side chain was coupled with D10 and purified by chromatography. To determine if the same structural motif can be applied to inhibition of the RhlR-AI2 interaction, C4-D10 was also synthesized. Assays were performed with both the lasI-gfp reporter PAO-JP2 (plasI-LVAgfp) and an RhlR-AI2 controlled rhlI-gfp reporter, PAO-JP2 (prhlI-LVAgfp) (FIGS. 10A-C) (de Kievit et al., Appl. Environ. Microbiol. 67:865-1873 (2001), which is hereby incorporated by reference in its entirety).
Reporter strains were grown overnight in LB plus 300 μg/ml carbenicillin at 37° C. and diluted to an OD600 of 0.1. Following an incubation of 1 hour, 200 μl of cell culture was added to individual wells of a 96 well plate containing appropriate amount of test compound(s). Plates were incubated for 6 hours and then scanned for fluorescence emission with a Molecular Imager (488 nm excitation and 695 nm bandpass filter). Fluorescence was quantified with ImageQuant software.
Next the ability of 2 and 3 to inhibit the rhlI-gfp reporter strain PAO-JP2 (prhlI-LVAgfp) was tested, since this expression is also AI1-dependent.

[2] = system: pyocyanin; experiment: pyocyanin assay, wild type strain PAO1; type: cell-based, P. aeruginosa PAO1; conditions: wild type PAO1, no AIs added
Procedure: For the pyocyanin assay, cells were grown overnight in LB then washed in fresh media and diluted to an OD600 of 0.05. This culture was grown for 3-4 hours to mid-log phase (OD600 of 0.3-0.5), then diluted to an OD600 of 0.05, and aliquoted to test tubes containing an appropriate amount of test compound(s). Following 18 hours of growth, pyocyanin was extracted from filtered culture supernatants and quantified using standard methods (Essar et al., J. Bacteriol. 172:884-900 (1990), which is hereby incorporated by reference in its entirety).

[3] = system: PAO-JP2 (pTdK-GFP) biofilm; experiment: static biofilm assay, PAO-JP2 (pTdK-GFP); type: cell-based, P. aeruginosa; conditions: PAO-JP2 (pTdK-GFP) with exogenous AIs, 24-hour static assay
Procedure: (§1) Compound 3 was tested for its effect on biofilm development in a 24-hour assay that looks at the early stages of biofilm formation. […] Cultures were grown at 37° C. with shaking for 30 minutes, and then allowed to sit at 37° C. for an additional 23.5 hours. Coverslips were then rinsed and placed on slides for visualization using an MRC1024 Laser Scanning Microscope (BioRad) with a Nikon Fluor-60X oil emersion objective lens (NA=1.4), 488 nm Argon Laser and OG515 filter.

[4] = system: PAO1 (pTdK-GFP) biofilm; experiment: static biofilm assay, PAO1 (pTdK-GFP); type: cell-based, P. aeruginosa
Procedure: as §1
The same assay was run with strain PAO-1 (pTdK-GFP), and no exogenous autoinducers were added. […] The above results provide additional evidence that compound 3 interferes with QS signaling and reduces the production of important virulence factors.

[5] = system: lac promoter; experiment: GFP expression from lac promoter, PAO-JP2 (pTdK-GFP) (specificity control); type: cell-based, P. aeruginosa; conditions: lasI promoter replaced with a lac promoter

In the case of `CCCCCCCCCC(=O)CC(=O)NC1CCCCC1=O` (racemic) [Compound 3, N-(2-oxocyclohexyl)-3-oxododecanamide], the “inhibition of GFP expression (rhlI-gfp)” value [1] is reported as “greater than 60%”, the “effect on pyocyanin production” value [2] is reported as “very similar inhibitory effect” and the “effect on biofilm formation” value [3] is reported as “completely inhibited”. The “effect on biofilm morphology” value ([4]; wild type PAO1) was “noticeable difference in biofilm morphology”, the “effect on biofilm formation” value ([4]; wild type PAO1, no exogenous autoinducers) was “less obvious” and the “inhibition of GFP expression from lac promoter” value [5] was “inability to inhibit GFP expression”.

From patent US7498292B2, “Combinatorial libraries of autoinducer analogs, autoinducer agonists and antagonists, and methods of use thereof” (The Research Foundation of State University of New York, priority 2002, dated 2009)
